Measurements from US20020098210A1, “FORMULATIONS AND METHODS FOR REDUCING SKIN IRRITATION” (priority 1997, published 2002).
Like-named read-outs stand apart in the source and are kept apart here.

How the values were obtained:
[1] = system: lactic acid skin irritation; experiment: Lactic acid irritation trial, pretreatment test (anti-irritant applied 15 minutes prior to irritant); type: in vivo, human; conditions: for Percent Inhibition / Percent Inhibition (average inhibition of cumulative irritation): pretreatment tests; for Percent Inhibition: representative panels, 250 mM, vehicle Visible Difference; for Percent Inhibition (average inhibition of cumulative irritation): cation salt 250 mM, lactic acid irritant, average over trials; for inhibition of skin irritation (in words): salts in Elizabeth Arden Visible Difference Refining Toner, various amounts
From the text: (§1) The following scaled scores were used for sensory assessment: […]

[2] = system: lactic acid skin irritation; experiment: Lactic acid irritation trial, time zero test (anti-irritant applied simultaneously with irritant); type: in vivo, human; conditions: time zero tests; for Percent Inhibition (average inhibition of cumulative irritation): cation salt 250 mM, lactic acid irritant, average over trials; for Percent Inhibition: representative panels, 250 mM, vehicle 10% EtOH
From the text: as §1

[3] = system: skin irritation induced by topical irritants (lactic acid, glycolic acid, capryloyl salicylic acid, benzoyl peroxide); experiment: Human clinical trials of anti-irritant activity (general statements); type: in vivo; conditions: topical application
Experimental: The objective of the clinical trials was to determine whether and to what extent topical formulations of the calcium cation reduced or prevented skin irritation caused by certain severe skin irritants, including particularly lactic acid and glycolic acid (which are hydroxy acids), capryloyl salicylic acid (a β-hydroxy acid ester) and capsaicin (an isolate from cayenne and paprika known for its skin-irritating properties). The trials were conducted in a double blind, randomized, vehicle-controlled manner. Various formulations of the invention were tested in over 460 people.

[4] = system: lactic acid skin irritation
Experimental: Tests were conducted in multiple panels of from 7 to 12 subjects each. Subjects were instructed not to wear any makeup or facial lotions to the clinic the day of testing. The subjects were instructed to wash their face with Ivory bar soap in the clinic prior to application of test solutions.
Lactic acid skin-irritant compositions were formulated in an appropriate vehicle prior to application to the skin of the subjects.
Controls were performed by applying corresponding formulation(s) (pretreatment and/or skin-irritant composition) with an equimolar amount of sodium chloride to a contralateral portion of the subject's skin. Typically, the test materials were applied to the face of the subject.
All test solutions (including controls) were applied in a double blind, randomized fashion using the prepared solutions as previously placed in coded vial designated for use on either the right or left side of the face (or other test area). Solutions were typically applied using a cotton swab (six strokes) or sponge applicator to the face and cheek area extending from the midline of the nose over to the center of the cheek and from the cheek bone down to the jaw line. Application was made first to the right side and then to the left.
Sensory assessment scores were recorded for each treated side of the subject's skin every minute for 15 minutes or until three consecutive scores of “zero” irritation were obtained. The following scaled scores were used for sensory assessment:
Symptom scores were cumulated, separately for the cation-treated and control-treated areas, for each individual and also for the panel as a whole. Individuals not reporting a cumulative score of at least “7” on at least one treatment area were excluded (in a blinded fashion) from further analysis in order to ascertain anti-irritant efficacy with respect to the more severely-susceptible test subjects. From a practical standpoint, scores of “0” and “1” on the above scale would be considered highly desirable for a commercial product because such a response would likely not result in a consumer ceasing to use a product.

## Calcium gluconate
[1]
  Percent Inhibition: 40%
[2]
  Percent Inhibition (average inhibition of cumulative irritation): 40%
  Percent Inhibition: 49%
[3]
  anti-irritant activity (in words): particularly active as anti-irritants

## O=[N+]([O-])[O-].O=[N+]([O-])[O-].[Ca+2] [Calcium nitrate]
[1]
  Percent Inhibition (average inhibition of cumulative irritation): 45%
  Percent Inhibition: 44%
  inhibition of skin irritation (in words): effective to inhibit skin irritation
[2]
  Percent Inhibition (average inhibition of cumulative irritation): 90%
  Percent Inhibition: 85%
[4]; calcium nitrate 31 mM
  Percent Inhibition (cumulative irritation inhibition): 26%
[4]; calcium nitrate 62 mM
  Percent Inhibition (cumulative irritation inhibition): 52%
[4]; calcium nitrate 125 mM
  Percent Inhibition (cumulative irritation inhibition): 83%
[4]; calcium nitrate 250 mM
  Percent Inhibition (cumulative irritation inhibition): 82%
[4]; calcium nitrate 500 mM
  Percent Inhibition (cumulative irritation inhibition): 67%
[3]
  anti-irritant activity (in words): particularly active as anti-irritants

## [Ca+2] [calcium cation, calcium(II)]
[3]
  anti-irritant activity (in words): significant and reproducible anti-irritant effects
[3]; listed as calcium(II) (Ca^2+)
  anti-irritant activity (in words): effective

## [Ca+2].[Cl-].[Cl-] [Calcium chloride]
[1]
  Percent Inhibition (average inhibition of cumulative irritation): 35%
  Percent Inhibition: 35%
  inhibition of skin irritation (in words): effective to inhibit skin irritation
[2]
  Percent Inhibition (average inhibition of cumulative irritation): 65%
  Percent Inhibition: 61%
[3]
  anti-irritant activity (in words): particularly active as anti-irritants

## CC(=O)[O-].CC(=O)[O-].[Ca+2] [Calcium acetate]
[1]
  Percent Inhibition (average inhibition of cumulative irritation): 40%
  Percent Inhibition: 30%
  inhibition of skin irritation (in words): effective to inhibit skin irritation
[2]
  Percent Inhibition (average inhibition of cumulative irritation): 60%
  Percent Inhibition: 65%
[3]
  anti-irritant activity (in words): particularly active as anti-irritants
